Legend:
[1] = biological target: T1, DEGS1 (Homo sapiens, UniProt O15121); assay: Lipid mass spectrometry (LC/MS) of sphingolipids, DEGS1 activity; type: cell-based
T1 construct: endogenous in cells; host or cells: lineage-depleted human cord blood (lin- CB) cells
T1 sequence (O15121 1-323): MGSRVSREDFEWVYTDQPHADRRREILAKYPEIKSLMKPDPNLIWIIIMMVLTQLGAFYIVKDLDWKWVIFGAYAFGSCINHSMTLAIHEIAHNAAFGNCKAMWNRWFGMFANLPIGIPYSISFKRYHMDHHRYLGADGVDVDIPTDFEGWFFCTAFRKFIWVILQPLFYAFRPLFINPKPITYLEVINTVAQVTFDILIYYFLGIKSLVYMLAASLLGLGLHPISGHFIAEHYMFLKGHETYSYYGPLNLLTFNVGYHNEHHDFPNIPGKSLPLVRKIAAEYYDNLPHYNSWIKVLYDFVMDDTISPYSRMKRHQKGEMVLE
Description: All experiments following are at this 4HPR concentration unless otherwise indicated. […] (C) LC/MS was used to profile the ceramide (Cer), dihydroceramide (dhCer), sphingosine (sph), dihydrosphingosine (dhSph), S1P and dihydro-S1P (dhS1P) levels in lin− CB cells cultured for 8 days with control or 4HPR (n=2).

[2] = system: lin- CB cells; assay: 8 day ex vivo expansion culture of lin- CB, flow cytometry; type: cell-based, human
Description: (A) Experimental scheme (B) Representative FACS analysis data of in vitro culture for 16 HSC dose time course (n=3). The number of (C) viable cells, (D) CD15+ myeloid cells, (E) GlyA+ erythroid cells, and (F) CD34+ primitive cells measured for the 16 LTRC dose with HTS flow cytometry analysis at day 8 post-treatment for vehicle control or 4HPR prior to xenotransplantation (n=5 biological replicates, 4 in technical triplicate, marked with different symbols). (G) Human CD45+ engraftment at 16 weeks post transplant in injected femur (n=4, 5 mice/biological experiment). Lineage analysis of control or 4HPR transplanted mice from FIG. 5G for (H) B lymphoid, (I) myeloid, (J) erythroid, and (K) primitive CD34+ at the 16 LTRC dose. (L) CD45+ cells were isolated from 5 biological experiments of the 16 LTRC dose primary mice and transplanted at limiting doses into secondary recipients for 16 weeks. Human CD45+ marking of >0.1% was considered positive for secondary engraftment. Limiting dilutation analysis was performed using ELDA software and the long-term repopulating cell (LTRC) frequency for each biological replicate plotted and the average LTRC frequency calculated.
(A) Representative flow cytometry analysis of the primitive hierarchy within the CD34+ fraction of day 8 cultured lin− CB cells after the indicated treatments for CD90 and CD45RA, n=4. B) The distribution of cultured CD34+CD90+CD45RA− (cHSC), CD34+CD90−CD45RA− (cMPP), and […] for the indicated conditions at day 8 of ex vivo culture following CD34 enrichment. Statistical significance assayed through unpaired t-test relative to vehicle control (Ctrl). The relative number of colonies resulting from (C) HSC or (D) MPP grown in methylcellulose CFC assays in the presence of vehicle control (−) or the indicated combination of 2 uM 4HPR, or 35 nM UM171 or 0.5 uM SR1 at 10 days. Statistical significance is calculated via unpaired t-test relative to ctrl (black) or to the presence of absence of 4HPR treatment for UM171 or SR1.
(A) The number of cells following 8 days of ex vivo culture at the 16 LTRC dose grown as in FIG. 5A for the indicated drug treatments (n=2). […] (2 biological replicates) (E) CD45+ cells were isolated from 2 biological experiments of the 16 LTRC dose primary mice and transplanted at limiting doses into secondary recipients for 16 weeks. Human CD45+ marking of >0.01% was considered positive for secondary engraftment. Limiting dilutation analysis was performed using ELDA software and the long-term repopulating cell (LTRC) frequency for each biological replicate plotted and the average LTRC frequency calculated.
To determine if 4HPR preserves functional HSC in CB liquid culture, we devised an experimental protocol to test the effect of 4HPR treatment in short-term ex vivo expansion culture on repopulation in serial NSG xenotransplantation to functionally read out LT-HSC (FIG. 5A). Briefly, lin− CB (enriched for CD34+) is cultured ex vivo in an in vitro limiting dilution assay (LDA) fashion based on 3 initial cell doses with high (16 functional HSC or LTRC), medium (3.2 LTRC) and limiting (0.65 LTRC) in xenotransplantation. All expanded cells are unbiasly transplanted via intrafemoral injection into NSG mice after 8 days of culture where drug is added every 2 day and reconstitution is assayed 16 weeks following transplantation. […] Human CD45+ cells are isolated from primary mice transplanted with the 16 LTRC dose and serially transplanted in LDA fashion to enumerate functional HSC in the gold-standard for long-term repopulating cell (LTRC). Remarkably, 4HPR treated cells show a 3 fold increase in SRC over control treatment through 32 weeks of xenotransplantation with an average LTRC frequency of 1e6 CD45+ cells (FIG. 5L, n=5, p=0.02). […] Thus, 4HPR acts to preserve LT-HSC function in ex vivo expansion despite limiting total CD34+ cells during culture. […]

[3] = lin-CB cells cultured 8 days, 2 uM 4HPR
[4] = 8 days culture, 4HPR vs vehicle control

## CC1=C(/C=C/C(C)=C/C=C/C(C)=C/C(=O)Nc2ccc(O)cc2)C(C)(C)CCC1 [4HPR, N-(4hydroxyphenyl)retinamide]
[1]; 8 day culture, alone or in combination with UM171 and SR1
  dhCer and dhSph levels: increases dhCer and dhSph
[1]; [3]
  levels of the signaling lipid S1P: not altered
  total ceramide compared to control: decrease total ceramide
  total dihydroceramide compared to control: increase total dihydroceramide
[2]; [4]
  erythroid differentiation in culture: decreased erythroid differentiation
  immunophenotypic CD34+ cells in culture: fewer immunophenotypic CD34+ cells
  myeloid differentiation in culture: enhanced myeloid differentiation
[2]; day 8, relative to control
  cHSC in the CD34 compartment: trends to increasing cHSC
  cMPP in the CD34 compartment: increasing cMPP
  percentage of cProg cells in the CD34 compartment: significantly limits the percentage of (cProg) cells
[2]; lin- CB as well as HSC and MPP, dominant over UM171 or SR1 singularly and in combination
  formation of cProg cells: limits the formation of cProg cells

— US20190136188A1, “4HPR AND ITS USE IN THE CULTURING OF HEMATOPOIETIC STEM CELLS” (UNIVERSITY HEALTH NETWORK, priority 2016, published 2019)
